{"source": "patent US20020004679A1", "about": "“Topoisomerase inhibitors for prevention of restenosis” (Quanam Medical Corporation, priority 1998, published 2002)", "test_system": "coronary arteries of pigs", "test": "Drug-loaded polymer stent implanted in pig coronary arteries for one month; morphometric analysis of late loss and percent stenosis", "assay_type": "in vivo, pig (Domestic Farm Swine)", "details": "overall conclusion from the pig coronary artery stent studies", "experimental": "Boundaries of a selected coronary artery segment were detected automatically from optically magnified and video-digitized regions of interest. The catheter used for insertion of the stents was used as a scaling device to determine the dimensions of the artery at the site of implantation. The original vessel diameter at the time of implantation was determined.\nThe catheter used for insertion of the stents was used as a scaling device to determine the dimensions of the artery at the site of implantation. The original vessel diameter at the time of implantation was determined."}
{"smiles": "CC[C@@]1(O)C(=O)OCc2c1cc1n(c2=O)Cc2cc3ccccc3nc2-1", "note": "[camptothecin, Camptothecin]", "values": [{"measurement": "inhibition of undesirable cell growth associated with vessel injury during coronary angioplasty and stent insertion", "result": "effective to inhibit the undesirable cell growth"}]}
